The results in this text go back to patent US7718768B2, “Biologically active peptide [sequence]” (CMS Peptides Patent Holding Company Limited, priority 2001, dated 2010).

Marks after values point to notes of the source that are not given here. No end group written: not given here.

Assay [1] deals with Duck Hepatitis B Virus (DHBV). The experiment in a line: Chongqing duck hepatitis B model, serum DHBV DNA by dot-blot hybridization. The assay is classed as in vivo, Chongqing ducks. The conditions noted are these: CMS001 50 μg/kg/day i.p., lamivudine 50 mg/kg/day oral.
For assay [2], the system named is B16 melanoma cells. The experiment in a line: lung metastasis foci of inoculated B16 melanoma cells, postmortem examination. The assay is classed as in vivo, C57BL/6 mice. On the procedure: Intraperitoneal injection, once per day. […] Treatment of all groups with testing substance lasted for 30 days or until the animal died unless otherwise specified. […] The cell concentration was adjusted to 1×10^5 per ml with Hank's solution and 0.1 ml of the cell suspension was injected via the tail vein into the testing mice to generate the B16 melanoma bearing animal model. Treatment with test substance started as described in section Method 1. […] Postmortum Examination of the Animals was Performed. The Pathological Changes were Recorded, and the Numbers of Melanoma Lung Metastasis Foci were Counted. Results 1. The Effect of Peptide on the Cellular Phagocytosis in BALB/c Mice with Transplanted S180 Sarcoma (Method 2.1)

Assay [3] is described as follows: body weight of rats fed high nutrition diet (obesity induced by over-feeding). The assay is classed as in vivo, Sprague-Dawley (SD) rats. The protocol:
Sprague-Dawley (SD) rats, weighing 145±10 g, were supplied by the Center of Experimental Animal of Guangzhou University of Traditional Chinese Medicine, PR China (certificate No.: 2000A019). Peptides were custom synthesized (of L-amino acids origin) by American Peptide Company, Inc., USA, and were diluted to 10 μg/ml in normal saline. The high and normal nutrition diets were prepared in compliance with the guideline for pre-clinical research of anti-obesity drug, issued by SDA (State Drug Administration), PR China^[1].
Healthy rats were randomized into the experiment, positive control, and negative control groups. 10 rats per group, half male and half female. The experiment group of rats was fed with high nutrition diet for 5 weeks with simultaneous intramuscular injection of 300 μg/kg/day peptide, once per day. Positive control group received the same high nutrition diet but placebo saline injection, while negative control group, used to proof successful establishment of obesity model, received normal nutrition diet and placebo saline injection. After 5 weeks treatment, injection was stopped and the same diet was maintained for another 3 weeks. The rats were weighed at once per week interval. Behaviour of the rats was also observed.
The data were presented as mean±standard deviation. Paired t test or single-factor ANOVA was used for inter and intra group comparison. Statistical significance cut-off was at P≦0.05.

With PTTKTYFPHF [CMS001], the “Serum DHBV DNA level” value is given as 21 ± 18 10^3 units in assay [1] (Day 0 (before treatment), Mean ± Standard Deviation); 11 ± 13 10^3 units in assay [1] (Day 7 of treatment); 20 ± 18 10^3 units in assay [1] (Day 14 of treatment); 14 ± 14 10^3 units in assay [1] (Day 21 of treatment); 5 ± 3* 10^3 units in assay [1] (Day 28 (end of 4 weeks treatment)); 18 ± 16 10^3 units in assay [1] (Day 35 (one week after termination of treatment)).
For IGMESAGIHETTY [CMS016], the “B16 metastatic foci in the lung, postmortem examination” value in assay [2] (5 μg/kg/day i.p.) and in assay [2] (500 μg/kg/day i.p.) was “did not show any sign of existence of B16 metastatic foci in the lung” throughout.
With PSIVGRPRHQGVM [CMS015], the body weight in assay [3] (Pre-treatment, Female n = 5, 300 μg/kg/day intramuscular) came out at 129.2 ± 3.3 g; in assay [3] (Pre-treatment, Male n = 5, 300 μg/kg/day intramuscular), 145.6 ± 8.5 g; in assay [3] (Week 1, Female, 300 μg/kg/day intramuscular), 157.8 ± 8.3 g; in assay [3] (Week 1, Male, 300 μg/kg/day intramuscular), 183.8 ± 10.6 g; in assay [3] (Week 2, Female, 300 μg/kg/day intramuscular) it was 176.0 ± 11.2 g; in assay [3] (Week 2, Male, 300 μg/kg/day intramuscular), 220.6 ± 12.2 g. The body weight is given as 196.0 ± 10.5 g in assay [3] (Week 3, Female, 300 μg/kg/day intramuscular); 239.0 ± 16.0 g in assay [3] (Week 3, Male, 300 μg/kg/day intramuscular); 212.0 ± 13.5 g in assay [3] (Week 4, Female, 300 μg/kg/day intramuscular); 258.2 ± 18.1 g in assay [3] (Week 4, Male, 300 μg/kg/day intramuscular); 221.4 ± 13.2 g in assay [3] (Week 5 (last week of injection), Female, 300 μg/kg/day intramuscular); 268.8 ± 17.7 g in assay [3] (Week 5 (last week of injection), Male, 300 μg/kg/day intramuscular). Further, the body weight came to 235.6 ± 16.3 g in assay [3] (Week 6 (injection stopped after week 5), Female); 299.4 ± 21.2 g in assay [3] (Week 6 (injection stopped after week 5), Male); 242.2 ± 18.8 g in assay [3] (Week 7 (injection stopped after week 5), Female); 310.4 ± 25.9 g in assay [3] (Week 7 (injection stopped after week 5), Male); 252.8 ± 22.5 g in assay [3] (Week 8 (injection stopped after week 5), Female); 337.4 ± 30.6 g in assay [3] (Week 8 (injection stopped after week 5), Male).
For KAVGHLDDLPGAL [CMS008], the “B16 metastatic foci in the lung, postmortem examination” value in assay [2] (0.5 μg/kg/day i.p.), in assay [2] (5 μg/kg/day i.p.) and in assay [2] (50 μg/kg/day i.p.) was “did not show any sign of existence of B16 metastatic foci in the lung” each time.
